Columns and labels:
JAK3(h) = biological target: T1, JAK3(h) (Homo sapiens, UniProt P52333); test: In vitro activity test of JAK3 kinase ([γ-33P]-ATP filter assay, Eurofins); format: biochemical
T1 construct: purchased Eurofins (UK)
T1 sequence (P52333 1-1124): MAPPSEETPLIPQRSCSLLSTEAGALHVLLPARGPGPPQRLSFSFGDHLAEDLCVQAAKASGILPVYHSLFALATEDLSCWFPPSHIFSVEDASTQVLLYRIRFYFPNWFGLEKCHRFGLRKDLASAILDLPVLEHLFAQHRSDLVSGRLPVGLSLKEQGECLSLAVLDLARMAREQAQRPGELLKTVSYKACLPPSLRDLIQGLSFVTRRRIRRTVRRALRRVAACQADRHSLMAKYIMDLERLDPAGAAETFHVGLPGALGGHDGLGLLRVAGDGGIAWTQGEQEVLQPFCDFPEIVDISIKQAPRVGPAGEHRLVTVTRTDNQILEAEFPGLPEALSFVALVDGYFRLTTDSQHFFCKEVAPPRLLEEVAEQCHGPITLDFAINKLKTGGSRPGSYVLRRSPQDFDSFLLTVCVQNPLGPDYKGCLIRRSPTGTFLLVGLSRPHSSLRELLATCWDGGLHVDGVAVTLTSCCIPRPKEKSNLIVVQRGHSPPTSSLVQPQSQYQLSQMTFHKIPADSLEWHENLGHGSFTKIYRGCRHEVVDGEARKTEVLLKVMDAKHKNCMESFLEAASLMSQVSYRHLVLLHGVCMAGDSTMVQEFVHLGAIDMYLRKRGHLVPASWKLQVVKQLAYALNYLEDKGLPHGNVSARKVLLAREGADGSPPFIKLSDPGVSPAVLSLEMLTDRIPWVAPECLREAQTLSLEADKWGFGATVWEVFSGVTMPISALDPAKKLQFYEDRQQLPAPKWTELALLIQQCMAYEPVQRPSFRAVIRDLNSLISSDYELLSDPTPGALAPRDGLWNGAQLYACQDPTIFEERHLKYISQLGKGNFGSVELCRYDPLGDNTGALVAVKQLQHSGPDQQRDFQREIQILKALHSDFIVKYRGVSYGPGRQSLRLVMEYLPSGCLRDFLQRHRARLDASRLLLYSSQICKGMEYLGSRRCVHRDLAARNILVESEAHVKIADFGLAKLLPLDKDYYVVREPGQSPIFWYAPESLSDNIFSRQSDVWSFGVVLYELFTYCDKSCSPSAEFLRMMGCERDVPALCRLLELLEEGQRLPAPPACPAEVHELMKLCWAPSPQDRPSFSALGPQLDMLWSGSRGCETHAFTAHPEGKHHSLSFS
Experimental: Recombinant human JAK1, JAK2, JAK3, and Tyk2 proteases, along with major instruments and reagents, were provided by Eurofins in the UK. JAK2, JAK3, and TYK2 were diluted with: 20 mM 3-(N-morpholino)propanesulfonic acid (MOPS), 1 mM EDTA, 0.01% Brij-35.5% glycerol, 0.1% β-mercaptoethanol, 1 mg/mL BSA; JAK1 was diluted with: 20 mM TRIS, 0.2 mM EDTA, 0.1% β-mercaptoethanol, 0.01% Brij-35.5% glycerol. The compound of formula (I) was prepared as a 100% DMSO solution and diluted to 50 times the final assay concentration. The test compound was subjected to a 3-fold serial dilution, with final concentrations ranging from 10 µM to 0.001 µM across 9 concentrations, and the DMSO content in the detection reaction was 2%. The working stock solution of this compound was added as the first component of the reaction to the assay wells, followed by the addition of the remaining components according to the protocol detailed below. JAK3(h) was incubated with 8 mM MOPS pH 7.0, 0.2 mM EDTA, 500 µM GGEEEEYFELVKKKK, 10 mM magnesium acetate, and [γ-^33P]-ATP (activity and concentration were adjusted as needed). The reaction was initiated by adding the Mg/ATP mixture and incubated at room temperature for 40 minutes, then terminated by adding 0.5% phosphoric acid. […] The IC50 results were analyzed using XLFIT5 (205 formula) from IDBS, as detailed in Table 12. […]

[1] = system: IL-23-induced epidermal hyperplasia model of the mouse ear pinna; test: Pharmacodynamic test of psoriasis model in mice (IL-23 injected into the ear pinna); format: in vivo, C57BL/6 mouse; conditions: for Ear thickness (mm)/day: right ear
Experimental: Objective: The purpose of this experiment is to evaluate the preventive and therapeutic effects of the test substance on IL-23-induced psoriasis-like skin lesions in mice, which were established by intradermal injection of IL-23 into the mouse ear pinna.
Methods: After the acclimation period, 50 mice were divided into 5 groups of 10 each by Excel complete randomization, namely: vehicle (0.5% MC & 0.5% Tween 80) control group, model group, and compound of formula (I) (10, 20, 50 mg/kg) groups. Except for the vehicle control group, the remaining groups were intradermally injected with IL-23 (3 µg/10 µL/mouse/day, QD) in the right ear for 8 consecutive days (D1 to D8), while the control group animals were intradermally injected with an equal volume of normal saline solution (10 µL/mouse/day, QD) in the right ear for 8 consecutive days (D1 to D8). During the modeling period, the vehicle or test drug was orally administered twice daily (Bid) at 6-hour intervals for 8 consecutive days (D1 to D8). During the administration period, the body weight of the animals was monitored every two days. On D1, D3, D5, D7 (all before IL-23 injection), and D9, the thickness of the right ear of the mice was measured, and the appearance of the ear pinna was scored. At the end of the experiment (Day 10), the modeled ear was excised, and an ear piece was punched along the ear pinna edge using an 8 mm punch and weighed. The punched right ear piece was fixed with formalin and subjected to histopathological examination (H&E) staining.

[2] = 10 mg/kg oral gavage twice daily for 8 days, day 1
[3] = 10 mg/kg oral gavage twice daily for 8 days, day 3
[4] = 10 mg/kg oral gavage twice daily for 8 days, day 5
[5] = 10 mg/kg oral gavage twice daily for 8 days, day 7
[6] = 10 mg/kg oral gavage twice daily for 8 days, day 9
[7] = 20 mg/kg oral gavage twice daily for 8 days, day 1
[8] = 20 mg/kg oral gavage twice daily for 8 days, day 3
[9] = 20 mg/kg oral gavage twice daily for 8 days, day 5
[10] = 20 mg/kg oral gavage twice daily for 8 days, day 7
[11] = 20 mg/kg oral gavage twice daily for 8 days, day 9
[12] = 50 mg/kg oral gavage twice daily for 8 days, day 1
[13] = 50 mg/kg oral gavage twice daily for 8 days, day 3
[14] = 50 mg/kg oral gavage twice daily for 8 days, day 5
[15] = 50 mg/kg oral gavage twice daily for 8 days, day 7
[16] = 50 mg/kg oral gavage twice daily for 8 days, day 9
[17] = 10, 20, 50 mg/kg oral gavage twice daily for 8 consecutive days

In the case of Cn1cc(-c2cn3nccc3c(-c3cnn([C@]4(CC#N)CC5(C[C@H](C#N)C5)C4)c3)n2)cn1 (stereo partly drawn) [Compound of formula (I)], the IC50 (JAK3(h)) is reported as 0.189 µM, the “Body weight (g)/day” value [1, 2] is reported as 19.77 ± 0.59 g and the Ear comprehensive score/day [1, 2] is reported as 0.00 ± 0.00. For the same molecule, the “Body weight (g)/day” value [1, 3] was 19.69 ± 0.57 g, the Ear comprehensive score/day [1, 3] was 0.00 ± 0.00 and the “Body weight (g)/day” value [1, 4] was 20.02 ± 0.77 g. For the same molecule, the Ear comprehensive score/day [1, 4] was 0.60 ± 0.52, the “Body weight (g)/day” value [1, 5] was 19.69 ± 0.63 g and the Ear comprehensive score/day [1, 5] was 1.70 ± 1.06. For the same molecule, the “Body weight (g)/day” value [1, 6] was 20.04 ± 0.72 g, the Ear comprehensive score/day [1, 6] was 2.60 ± 1.43 and the “Ear thickness (mm)/day” value [1, 6] was 0.430 ± 0.048 mm. The “Body weight (g)/day” value [1, 7] was 19.77 ± 0.54 g, the Ear comprehensive score/day [1, 7] was 0.00 ± 0.00 and the “Body weight (g)/day” value [1, 8] was 19.85 ± 0.78 g. The Ear comprehensive score/day [1, 8] was 0.00 ± 0.00, the “Body weight (g)/day” value [1, 9] was 20.13 ± 0.78 g and the Ear comprehensive score/day [1, 9] was 0.60 ± 0.70. The “Body weight (g)/day” value [1, 10] was 19.80 ± 0.92 g, the Ear comprehensive score/day [1, 10] was 1.40 ± 0.52 and the “Body weight (g)/day” value [1, 11] was 20.27 ± 0.90 g. For the same molecule, the Ear comprehensive score/day [1, 11] was 1.50 ± 0.71, the “Ear thickness (mm)/day” value [1, 7] was 0.190 ± 0.009 mm and the “Ear thickness (mm)/day” value [1, 10] was 0.350 ± 0.025 mm. The “Body weight (g)/day” value [1, 12] was 19.78 ± 0.53 g, the Ear comprehensive score/day [1, 12] was 0.00 ± 0.00 and the “Body weight (g)/day” value [1, 13] was 19.85 ± 0.68 g. For the same molecule, the Ear comprehensive score/day [1, 13] was 0.00 ± 0.00, the “Body weight (g)/day” value [1, 14] was 20.41 ± 0.70 g and the Ear comprehensive score/day [1, 14] was 0.10 ± 0.32. For the same molecule, the “Body weight (g)/day” value [1, 15] was 20.15 ± 0.56 g, the Ear comprehensive score/day [1, 15] was 1.40 ± 0.70 and the “Body weight (g)/day” value [1, 16] was 20.28 ± 0.76 g. The Ear comprehensive score/day [1, 16] was 1.00 ± 0.47, the “effect on the body weight of the animals (in words)” value [1, 17] was “no significant effect” and the “effect on the weight of the modeled ear (in words)” value [1, 17] was “significantly reduce”. The “effect on the total score of the modeled ear (in words)” value ([1]; 10, 20, 50 mg/kg oral gavage twice daily for 8 consecutive days, from D5 to D9) was “significantly reduce”, the “effect on the thickness of the modeled ear (in words)” value ([1]; dose of 50 mg/kg, as early as D3) was “significantly reduces” and the “effect on the thickness of the modeled ear (in words)” value ([1]; doses of 10 and 20 mg/kg, starting from day 5) was “significantly reduces”.
